Marks after values point to notes of the source that are not given here.
What was measured:
[1] = tested on: model of bronchial asthma in guinea pigs; assay: Content of cell elements in BAL in the model of bronchial asthma in guinea pigs; format: in vivo, guinea pig
Experimental: (§1) Bronchial asthma in guinea pigs was induced by a standard method [Ricciardolo F L, Nijkamp F, De Rose V, Folkerts G. The guinea pig as an animal model for asthma// Current Drug Targets. 2008 June; 9(6):452-65]. The animals were immunized by one parenteral administration of 0.5 mL of a solution comprising 100 μg/mL ovalbumin (Sigma) and 100 mg/mL aluminium hydroxide. Intact animals received a physiological saline solution in an amount of 0.5 mL.
(§2) On days 29, 30 and 31, hyperactivity of the respiratory airways was provoked by inhalation administration of ovalbumin in ascending concentrations of 0.1, 0.3, and 0.5 mg/mL on days 1, 2, and 3 of the provocation, respectively. The inhalation lasted 5 minutes or until asphyxia symptoms became apparent (fall to one side). On day 32, the animals received a challenging dose of ovalbumin (1 mg/mL) for 5 minutes, while assessing a bronchospastic reaction.
(§3) The studied compounds were administered to the animals once daily every day for 6 or 10 days; the administration was terminated two days before the administration of the challenging dose of antigen.
(§4) The bronchoalveolar lavage (BAL) and cardiac cavity blood were derived from the animals 24 hours after administration of the challenging dose. The BAL was collected under anesthesia by lavaging the lungs with 5 mL of a physiological saline solution heated to 37° C. through the trachea, using a syringe dosing device.
The absolute number of cell elements in 1 μL of the lavage (cytosis) was counted in the bronchoalveolar lavage, using the Goryaev camera. Then, the BAL was centrifuged at 200 g for 10 minutes. The residue was used to prepare swabs that were fixed in methanol and stained according to Romanovsky-Giemsa to count endopulmonary cytogram.
(§5) The study comprised 3 experiments, wherein the first one was directed to the evaluation of the effect of claimed compounds 1-6 on the cell composition of the BAL, the second and the third experiments were aimed at evaluating the effect of compounds 1 and 2 on the cell composition of the BAL, the cell composition of the blood, and on the bronchospasm severity.

[2] = tested on: model of bronchial asthma in guinea pigs; assay: Content of cell elements in the blood in the model of bronchial asthma in guinea pigs; format: in vivo, guinea pig; conditions: Table 6 Experiment No. 2, 6 times, n = 8
Experimental: as §1, §2, §3, §4
The blood was analyzed with a hemocytometer to determine leykoformula.
as §5

[3] = tested on: model of bronchial asthma in guinea pigs; assay: Severity of bronchospasm in the model of bronchial asthma in guinea pigs; format: in vivo, guinea pig; conditions: Experiment No. 2, 6 times, n = 8
Experimental: as §1, §2, §3
The bronchospastic reaction was assessed by a change in the rate and depth of the respiratory movements and by the asphyxia symptom such as fall to one side. Spirogram was registered by laboratory experimental equipment (ADInstruments, Australia), using a base recording station (PowerLab 8sp.) and software LabCart. The registration was made using airflow sensors for laboratory animals and a spirograph with an integrated amplifier (ADInstruments).
as §5

[4] = tested on: model of sephadex-induced eosinophilic lung inflammation in rats; assay: Content of cell elements in BAL in the model of sephadex-induced eosinophilic lung inflammation in rats; format: in vivo, male Wistar rats; conditions: BAL 48 hours after sephadex
Experimental: The model of sephadex-induced eosinophilic lung inflammation in rats was realized by a standard method [Evaldsson C, Rydén I, Uppugunduri S. Isomaltitol exacerbates neutrophilia but reduces eosinophilia: new insights into the sephadex model of lung inflammation//Int Arch Allergy Immunol. 2011; 154(4):286-94]. Sephadex G-200 (Pharmacia, Sweden) was administered one time by inhalation to male Wistar rats at a dose of 5 mg/kg. The studied compounds were administered to the animals by the intragastric route four times: 24 hours and 1 hour before and 24 hours and 45 hours after administration of sephadex. The reference preparation, budesonide, was administered according to the same scheme, by inhalation at a dose of 0.5 mg/kg. Bronchoalveolar lavage was taken 48 hours after the inhalation of sephadex, and the total lymphocyte count and leukocyte formula in the lavage were determined. The number of rats in a group was 7 to 10.

[5] = Table 4, 14 mg/kg, 10 times of administration, n = 9
[6] = Table 5 Experiment No. 2, 0.14 mg/kg, 6 times, n = 8
[7] = Table 5 Experiment No. 2, 1.4 mg/kg, 6 times, n = 8
[8] = Table 5 Experiment No. 2, 14 mg/kg, 6 times, n = 8
[9] = Table 9, 1.8 mg/kg intragastric, four times, n = 7
[10] = Table 9, 18 mg/kg intragastric, four times, n = 7
[11] = Table 8, 0.5 mg/kg by inhalation, four times (reference preparation), n = 10

For `O=C1CCCC(=O)N1CCc1nc2ccccc2s1` [Compound 4, 1-(2-(1,3-benzothiazol-2-yl)ethyl)piperidine-2,6-dione], the “Eosinophils in BAL” value [1, 5] was 1.25 ± 0.34*& 10^9/L, the “Lymphocytes in BAL” value [1, 5] was 0.81 ± 0.11* 10^9/L and the “Monocytes in BAL” value [1, 5] was 0.85 ± 0.19& 10^9/L. For the same compound, the “Neutrophils in BAL” value [1, 5] was 0.43 ± 0.12 10^9/L.

In the case of `O=C1CCCC(=O)N1CCc1nccs1` [Compound 6], the “Eosinophils in BAL” value [1, 5] was 0.60 ± 0.21*& 10^9/L, the “Lymphocytes in BAL” value [1, 5] was 1.03 ± 0.24* 10^9/L and the “Monocytes in BAL” value [1, 5] was 0.83 ± 0.18* 10^9/L. The “Neutrophils in BAL” value [1, 5] was 0.97 ± 0.28* 10^9/L.

In the case of `O=C1CCCC(=O)N1CCc1ncc[nH]1` [Compound 2], the “Eosinophils in BAL” value [1, 5] was 1.30 ± 0.29*& 10^9/L, the “Lymphocytes in BAL” value [1, 5] was 1.53 ± 0.50* 10^9/L and the “Monocytes in BAL” value [1, 5] was 0.60 ± 0.14* 10^9/L. The “Neutrophils in BAL” value [1, 5] was 1.05 ± 0.16*& 10^9/L, the “Cytosis in BAL” value [1, 6] was 0.55 ± 0.09*& 10^9/L and the “Eosinophils in BAL” value [1, 6] was 0.20 ± 0.03*& 10^9/L. The “Lymphocytes in BAL” value [1, 6] was 0.07 ± 0.02& 10^9/L, the “Monocytes in BAL” value [1, 6] was 0.24 ± 0.06*& 10^9/L and the “Neutrophils in BAL” value [1, 6] was 0.03 ± 0.008*& 10^9/L. For the same compound, the “Cytosis in BAL” value [1, 7] was 0.63 ± 0.09*& 10^9/L, the “Eosinophils in BAL” value [1, 7] was 0.18 ± 0.02*& 10^9/L and the “Lymphocytes in BAL” value [1, 7] was 0.06 ± 0.01& 10^9/L. The “Monocytes in BAL” value [1, 7] was 0.29 ± 0.07* 10^9/L, the “Neutrophils in BAL” value [1, 7] was 0.09 ± 0.002 10^9/L and the “Cytosis in BAL” value [1, 8] was 0.56 ± 0.008*& 10^9/L. The “Eosinophils in BAL” value [1, 8] was 0.21 ± 0.06*& 10^9/L, the “Lymphocytes in BAL” value [1, 8] was 0.07 ± 0.009& 10^9/L and the “Monocytes in BAL” value [1, 8] was 0.22 ± 0.05*& 10^9/L. The “Neutrophils in BAL” value [1, 8] was 0.07 ± 0.002 10^9/L, the “Banded neutrophils in the blood” value ([2]; 0.14 mg/kg) was 0.18 ± 0.04 10^9/L and the “Basophils in the blood” value ([2]; 0.14 mg/kg) was 0 ± 0 10^9/L. For the same compound, the “Cytosis in the blood” value ([2]; 0.14 mg/kg) was 7.80 ± 0.77*& 10^9/L, the “Eosinophils in the blood” value ([2]; 0.14 mg/kg) was 0.09 ± 0.03& 10^9/L and the “Lymphocytes in the blood” value ([2]; 0.14 mg/kg) was 3.95 ± 0.54& 10^9/L. For the same compound, the “Monocytes in the blood” value ([2]; 0.14 mg/kg) was 0.18 ± 0.06 10^9/L, the “Segmented neutrophils in the blood” value ([2]; 0.14 mg/kg) was 3.41 ± 0.41*& 10^9/L and the “Banded neutrophils in the blood” value ([2]; 1.4 mg/kg) was 0.21 ± 0.03 10^9/L. The “Basophils in the blood” value ([2]; 1.4 mg/kg) was 0 ± 0 10^9/L, the “Cytosis in the blood” value ([2]; 1.4 mg/kg) was 7.70 ± 0.40*& 10^9/L and the “Eosinophils in the blood” value ([2]; 1.4 mg/kg) was 0.1 ± 0.03& 10^9/L. For the same compound, the “Lymphocytes in the blood” value ([2]; 1.4 mg/kg) was 3.68 ± 0.25& 10^9/L, the “Monocytes in the blood” value ([2]; 1.4 mg/kg) was 0.18 ± 0.06 10^9/L and the “Segmented neutrophils in the blood” value ([2]; 1.4 mg/kg) was 3.53 ± 0.37*& 10^9/L. For the same compound, the “Banded neutrophils in the blood” value ([2]; 14 mg/kg) was 0.17 ± 0.04 10^9/L, the “Basophils in the blood” value ([2]; 14 mg/kg) was 0 ± 0 10^9/L and the “Cytosis in the blood” value ([2]; 14 mg/kg) was 6.93 ± 0.77& 10^9/L. For the same compound, the “Eosinophils in the blood” value ([2]; 14 mg/kg) was 0.1 ± 0.04& 10^9/L, the “Lymphocytes in the blood” value ([2]; 14 mg/kg) was 3.51 ± 0.41& 10^9/L and the “Monocytes in the blood” value ([2]; 14 mg/kg) was 0.24 ± 0.08 10^9/L. For the same compound, the “Segmented neutrophils in the blood” value ([2]; 14 mg/kg) was 2.9 ± 0.38& 10^9/L, the “The number of animals with moderate bronchospasm (without acute phase, with subacute phase, with breath management)” value ([3]; 0.14 mg/kg) was 1 and the “The number of animals with moderate bronchospasm (without acute phase, with subacute phase, without breath management)” value ([3]; 0.14 mg/kg) was 1. The “The number of animals with severe bronchospasm (in acute and subacute phase)” value (“The number … (in acute and subacute phase)” below) ([3]; 0.14 mg/kg) was 2, the “The number of animals without bronchospasm” value ([3]; 0.14 mg/kg) was 4 and the “The number of animals with moderate bronchospasm (without acute phase, with subacute phase, with breath management)” value ([3]; 1.4 mg/kg) was 0. For the same compound, the “The number of animals with moderate bronchospasm (without acute phase, with subacute phase, without breath management)” value ([3]; 1.4 mg/kg) was 3, the “The number … (in acute and subacute phase)” value ([3]; 1.4 mg/kg) was 1 and the “The number of animals without bronchospasm” value ([3]; 1.4 mg/kg) was 4. For the same compound, the “The number of animals with moderate bronchospasm (without acute phase, with subacute phase, with breath management)” value ([3]; 14 mg/kg) was 1, the “The number of animals with moderate bronchospasm (without acute phase, with subacute phase, without breath management)” value ([3]; 14 mg/kg) was 0 and the “The number … (in acute and subacute phase)” value ([3]; 14 mg/kg) was 2. For the same compound, the “The number of animals without bronchospasm” value ([3]; 14 mg/kg) was 5.

`Cl.O=C1CCCC(=O)N1CCC1CCCN1` (centres unmarked) [Compound 7] was tested, and the “Eosinophils, content of cell elements in 1 μL of BAL” value (from here on “Eosinophils, content”) [4, 9] was 28 ± 16& in 1 μL of BAL, the “Leukocytes, content of cell elements in 1 μL of BAL” value (shortened to “Leukocytes, content”) [4, 9] was 2242 ± 289& in 1 μL of BAL and the “Lymphocytes, content of cell elements in 1 μL of BAL” value (shortened to “Lymphocytes, content”) [4, 9] was 16 ± 10 in 1 μL of BAL. For the same compound, the “Macrophages, content of cell elements in 1 μL of BAL” value (“Macrophages, content” below) [4, 9] was 913 ± 235& in 1 μL of BAL, the “Neutrophils, content of cell elements in 1 μL of BAL” value (from here on “Neutrophils, content”) [4, 9] was 389 ± 188 in 1 μL of BAL and the “Eosinophils, content” value [4, 10] was 164 ± 62 & in 1 μL of BAL. For the same compound, the “Leukocytes, content” value [4, 10] was 1725 ± 345& in 1 μL of BAL, the “Lymphocytes, content” value [4, 10] was 29 ± 17 in 1 μL of BAL and the “Macrophages, content” value [4, 10] was 909 ± 299& in 1 μL of BAL. For the same compound, the “Neutrophils, content” value [4, 10] was 136 ± 50& in 1 μL of BAL.

For `CC1(C)CC(=O)N(CCc2cnc[nH]2)C(=O)C1` [Compound 3], the “Eosinophils in BAL” value [1, 5] was 0.93 ± 0.31*& 10^9/L, the “Lymphocytes in BAL” value [1, 5] was 0.72 ± 0.08* 10^9/L and the “Monocytes in BAL” value [1, 5] was 0.71 ± 0.18& 10^9/L. The “Neutrophils in BAL” value [1, 5] was 0.36 ± 0.08 10^9/L.

For `CCCC1O[C@@H]2C[C@H]3[C@@H]4CCC5=CC(=O)C=C[C@]5(C)[C@H]4[C@@H](O)C[C@]3(C)[C@]2(C(=O)CO)O1` (some centres unmarked) [Budesonide, budesonide, reference compound], the “Eosinophils, content” value [4, 11] was 204 ± 84*& in 1 μL of BAL, the “Leukocytes, content” value [4, 11] was 1805 ± 318*& in 1 μL of BAL and the “Lymphocytes, content” value [4, 11] was 37 ± 10& in 1 μL of BAL. The “Macrophages, content” value [4, 11] was 1230 ± 205 in 1 μL of BAL and the “Neutrophils, content” value [4, 11] was 334 ± 119 in 1 μL of BAL.

With `CC1CC(=O)N(CCc2cnc[nH]2)C(=O)C1` [Compound 8] the “Eosinophils, content” value [4, 9] was 202 ± 53*& in 1 μL of BAL, the “Leukocytes, content” value [4, 9] was 2796 ± 333 & in 1 μL of BAL and the “Lymphocytes, content” value [4, 9] was 82 ± 44 in 1 μL of BAL. For the same compound, the “Macrophages, content” value [4, 9] was 1860 ± 204& in 1 μL of BAL, the “Neutrophils, content” value [4, 9] was 303 ± 104& in 1 μL of BAL and the “Eosinophils, content” value [4, 10] was 318 ± 65*& in 1 μL of BAL. For the same compound, the “Leukocytes, content” value [4, 10] was 4250 ± 576 in 1 μL of BAL, the “Lymphocytes, content” value [4, 10] was 64 ± 45 in 1 μL of BAL and the “Macrophages, content” value [4, 10] was 2050 ± 462& in 1 μL of BAL. For the same compound, the “Neutrophils, content” value [4, 10] was 583 ± 180 in 1 μL of BAL.
